# Test results reported in US7195756B2, “Control of arthropod vectors of parasitic diseases” (Centers for Disease Control and Prevention, priority 2000, dated 2007).
# Experiments:
# [1] = test system: nymphal Ixodes scapularis; assay: Fipronil bioassay: treated laboratory mice challenged with nymphal ticks; assay type: in vivo; details: for % of nymphs fed to repletion: 20 μl single topical application
# Protocol: Fipronil Bioassay: To better determine the most efficacious concentration of fipronil active ingredient for use in the bait box method of tick control, a trial was conducted using treated and untreated laboratory mice challenged with nymphal Ixodes scapularis. Individual groups of 5 mice were treated with 20 microliters (one drop) of 1%, 0.75%, 0.5% and 0.43% of fipronil topical oil formulation micropipetted between the scapulae. Five mice were used as untreated controls. Individual mice were challenged with 10 nymphs each on days 14, 28 and 42. During tick challenge mice were held over water in a triple barrier/cage system. Ticks that fed to repletion were collected from the water and used as a measurement for acaricidal activity.
# 4) Fipronil bioassay—A total of 25 mice and 750 nymphal I. scapularis were used in this laboratory trial. The volume of 20 microliters (one average-sized drop) was considered the smallest amount of liquid acaricide that a mouse would apply to itself on a single visit to a bait box.
# Borrelia burgdorferi = assay: Field trial Mason's Island: spirochete infection of white-footed mice (ear biopsy culture); assay type: in vivo
# Protocol: (§1) A field trial was conducted from April to September, 1999 on Mason's Island, Mystic, Conn. […] Four sites situated in undeveloped natural areas were used as untreated controls.
# (§2) Modified Protecta Jr. (Bell Laboratories, Madison, Wis.) mouse bait boxes (FIG. 2) were used in this study. The modifications were as follows: a cotton yarn wick was stapled to the underside of the lid just in front of the feeding area entry; two adsorbent nylon strips were affixed to the outer edges of the food block trays. Two Detex monitoring blocks (Bell Laboratories, Madison, Wis.) were placed in each box, 2–3 ml of fipronil topical formulation was applied to the wick and adsorbent strips with a squirt bottle, and the lid was closed and locked with a set screw prior to placement on properties. A 0.43% w/w formulation of fipronil was used in May and June and this was replaced by a 1% w/w formulation from July through September.
# (§3) White-footed mice were live-trapped using 3″×3″×10″ Sherman mouse traps (Sherman Trap Co., Tallahassee, Fla.). Pre-treatment trapping was conducted in April and May and post-treatment trapping from June through September to determine: 1) distribution of mice on individual properties, 2) tick burdens on animals, and 3) spirochete infection rates in mice between treated and untreated plots. Each mouse was anesthetized, ectoparasites were removed, ear tissue was collected for spirochete culture, mice were then bled, weighed, measured, ear-tagged and released at the point of capture. In July and August cloth drags were used to collect host-seeking larval ticks for comparison with results of host-associated tick data.
# (§4) Based upon pre-treatment mouse distribution and abundance data, a total of 125 bait boxes were set out on 13 residences. Boxes were spaced approximately 30 feet apart along the interface with maintained landscaping and wood lot or scrub brush. The number of boxes/property ranged from 4 to 20, depending on property size and presence of suitable mouse habitat. Initial treatment with fipronil began on May 17 and at approximate 4-week intervals each box was re-baited with 2 food blocks and the wick and strips were replenished with 2–3 ml of fipronil formulation. A record of relative use by white-footed mice was kept for each box during the trial.
# 3) Impact of fipronil on the natural transmission cycle of B. burgdorferi—Individual captured mice were tested for infection with B. burgdorferi by culture of ear biopsy tissue in BSK H growth media.
# Ixodes scapularis = assay: Field trial Mason's Island: tick burdens on white-footed mice, fipronil-treated bait boxes; assay type: in vivo; details: for mean number of larvae/mouse: treated area
# Protocol: as §1, §2, §3, §4
# I. spinipalpis = assay: Field trial Larimer County, Colorado: ticks on Neotoma mexicana, treated bait boxes; assay type: in vivo, Ixodes spinipalpis; parameters: I. spinipalpis control level: concentration or dose not given beside the values; details: for I. spinipalpis control level: tick burdens treated vs untreated rats, FRONT LINE TOP SPOT
# Protocol: A field trial testing fipronil (FRONT LINE TOP SPOT®) on native rodent-associated ticks was conducted in a Rocky Mountains foothills habitat in Larimer County, Colo. Treated and untreated plots consisted of 35 rat dens within 5 hectares each. A mark-release-capture study with Neotoma mexicana began in April, and captured rats were anesthetized and ticks removed, identified and quantified. The principal tick on N. mexicana is I. spinipalpis, a nidicolous, competent vector in enzootic transmission cycles in Colorado, California and Oregon. […] Fipronil was passively applied to rats as they entered and exited modified commercially available bait boxes as described in Example 1. Treated bait boxes were set out in May, left in place, and retreated and rebaited at four-week intervals through August. Collections were made at 1, 4, 8, 12 and 16 weeks post-application. N. mexicana collected in the untreated control area numbered 92 with 150 total captures resulting in 1273 fleas and ticks. In the fipronil area, 110 individual rats were collected with a total of 179 captures resulting in 416 fleas and ticks.
# [2] = recaptured adult white-footed mice following fipronil treatment, chi-square p = 0.01
compound,measurement,setting,value
"N#Cc1nn(-c2c(Cl)cc(C(F)(F)F)cc2Cl)c(N)c1[S+]([O-])C(F)(F)F (stereo not drawn) [Fipronil, 5-amino-3-cyano-1-(2,6-dichloro-4-trifluoromethylphenyl)-4-trifluoromethylsulfinylpyrazole]",% of nymphs fed to repletion,"[1]; 0.43% (85 μg/mouse), 14 days",0%
same,% of nymphs fed to repletion,"[1]; 0.43% (85 μg/mouse), 28 days",16%
same,% of nymphs fed to repletion,"[1]; 0.43% (85 μg/mouse), 42 days",30%
same,% of nymphs fed to repletion,"[1]; 0.50% (100 μg/mouse), 14 days",0%
same,% of nymphs fed to repletion,"[1]; 0.50% (100 μg/mouse), 28 days",8%
same,% of nymphs fed to repletion,"[1]; 0.50% (100 μg/mouse), 42 days",24%
same,% of nymphs fed to repletion,"[1]; 1.00% (200 μg/mouse), 14 days",0%
same,% of nymphs fed to repletion,"[1]; 1.00% (200 μg/mouse), 28 days",0%
same,% of nymphs fed to repletion,"[1]; 1.00% (200 μg/mouse), 42 days",2%
same,optimum concentration of fipronil to kill ticks on mice for 30 days after a single exposure,[1]; 20 microliters (=150 micrograms),0.75%
same,% of spirochete-infected mice,"Borrelia burgdorferi; Peromyscus leucopus, fipronil area, 164 mice, April-September 1999 (untreated 69%)",38%
same,% of properties with infected mice,"Borrelia burgdorferi; fipronil area, 12/13 properties (untreated 100%)",92%
same,young mice that became infected,"Borrelia burgdorferi; post-treatment period, 26 young mice (body mass <17 g), fipronil area (untreated 30% of 26)",none
same,"No. of mice + at first capture, remained +",Borrelia burgdorferi; recaptured adult white-footed mice following fipronil treatment,18
same,"No. of mice − at first capture, became +",Borrelia burgdorferi; [2],4
same,"No. of mice − at first capture, remained −",Borrelia burgdorferi; [2],14
same,treated properties with host-seeking larvae present (cloth drags),"Ixodes scapularis; July and August, seven of 13 treated properties",54%
same,larvae on treated mice,"Ixodes scapularis; course of the study, except one engorged larva in August and one larva in September",not present
same,mean number of larvae/mouse,Ixodes scapularis; August (untreated 9.1),0.03
same,mean number of larvae/mouse,Ixodes scapularis; July (untreated 4.5),0
same,live nymphs on mice after fipronil treatment,"Ixodes scapularis; white-footed mice, fipronil-treated area, post-treatment June-September, bait boxes 0.43% then 1% w/w",not found
same,fleas and ticks collected,"I. spinipalpis; fipronil area, 110 rats, 179 captures (untreated: 1273 from 150 captures)",416
same,I. spinipalpis control level,I. spinipalpis; week 1 post-application,25%
same,I. spinipalpis control level,I. spinipalpis; week 4 post-application,90%
same,I. spinipalpis control level,I. spinipalpis; week 8 post-application,75%
same,I. spinipalpis control level,I. spinipalpis; week 12 post-application,97%
same,I. spinipalpis control level,I. spinipalpis; week 16 post-application,93%
